These results are taken from patent US9365556B2, “3,5-diaminopyrazole kinase inhibitors” (Axikin Pharmaceuticals, Inc., priority 2012, dated 2016).

The target of series [1] is T1, kinase domain protein of RC kinase (Homo sapiens, UniProt Q56UN5).
T1 sequence (Q56UN5 1061-1324 limits assumed): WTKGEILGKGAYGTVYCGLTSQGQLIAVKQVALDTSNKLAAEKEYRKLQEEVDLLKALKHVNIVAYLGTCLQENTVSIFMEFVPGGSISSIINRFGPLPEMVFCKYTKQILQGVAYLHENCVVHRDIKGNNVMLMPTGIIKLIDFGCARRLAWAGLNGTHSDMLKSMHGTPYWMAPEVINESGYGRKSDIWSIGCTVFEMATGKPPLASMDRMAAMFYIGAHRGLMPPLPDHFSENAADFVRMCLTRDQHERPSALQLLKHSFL
Description: Enzymatic assay for kinase inhibitory activity (Crebtide substrate, LANCE read-out). Format: biochemical. To be noted: compound at 1 μM. On the procedure:
Solutions of a test compound, Crebtide (a substrate), a kinase, and ATP were prepared using 1×MAPK Buffer (50 mM HEPES, 1 mM EGTA, […], 10 mM MgCl2, 2 mM DTT, and 0.01% Tween 20).
To each well, the test compound (1 μL) was first added (in duplicate) to reach a final concentration of 1 μM or 1×IC50 of the compound. The kinase (5 μl) was then added to each well to reach a final concentration of […] for the kinase domain or […] for the full-length domain. Each plate included a positive and negative controls in duplicate wells. Crebtide (2.5 μL) was then added to each well in duplicate to reach a final concentration of 50 nM. If the full-length kinase was used, the plates were incubated for 45 min at room temperature before proceeding further. ATP (2.5 μL) was added to each well to reach a final concentration of 1 μM for the kinase domain and 3 μM for the full-length.
After the addition of ATP, the plates were incubated for 45 min at room temperature. During the incubation, an EDTA solution (40 mM) and anti-Crebtide ([…]) were prepared. Additionally, a detection buffer stock solution was diluted ten fold before use.
After the incubation, the anti-Crebtide (5 μL) and EDTA (5 μL) were added to each well to reach their final concentrations of […] and 10 mM, respectively. The plates were allowed to develop at room temperature for 45 min. The plates were then read at 665 nm and 615 nm using Perkin Elmer Lance machine.
The biological results of inhibition of the kinase domain protein of RC kinase are summarized in Tables 2 and 3, wherein A represents at least 50% inhibition of the RC kinase activity at 1 μM; B represents no greater than 50% but at least 20% inhibition of the RC kinase activity at 1 μM; C represents no greater than 20% but at least 5% inhibition of the RC kinase activity at 1 μM; and D represents no greater than 5% inhibition of the RC kinase activity at 1 μM.
On the technique in general: Time-resolved FRET reads energy transfer from a long-lived donor to a nearby acceptor.

By inhibition is commonly meant the relative decrease from the control value, in per cent. One may read the melting point as the temperature of the solid-liquid transition. `N#Cc1c(Nc2cccc(Cl)c2)n[nH]c1/N=C/c1c[nH]nc1-c1ccc(F)cc1` [Compound A1] returned a melting point of 127 to 132 °C. Moreover, the inhibition at 1 µM in series [1] was ≤ 5%.

In turn, `N#Cc1c(Nc2cccc(Cl)c2)n[nH]c1/N=C/c1ccc(Cl)cc1Cl` [Compound A4] returned a melting point of 277 to 281 °C. In addition, the inhibition at 1 µM in series [1] was ≤ 5%.

`N#Cc1c(Nc2cccc(Cl)c2)n[nH]c1N=Cc1ccc(O)c([N+](=O)[O-])c1` [Compound A5, 3-((3-chlorophenyl)amino)-5-((4-hydroxy-3-nitrobenzylidene)amino)-1H-pyrazole-4-carbonitrile] returned a melting point of 286 to 288 °C. The inhibition at 1 µM in series [1] lay within 20 to 50%.

In turn, `N#Cc1c(Nc2ccccc2)n[nH]c1/N=C/c1ccc(Cl)cc1` [Compound A7] returned a melting point of 276 to 278 °C. Besides, the inhibition at 1 µM in series [1] was in the range of 5 to 20%.

Turning to `N#Cc1c(Nc2ccccc2)n[nH]c1/N=C/c1cccc2ccccc12` [Compound A8], the melting point fell in the range of 259 to 263 °C. Besides, the inhibition at 1 µM in series [1] was 5 to 20%.

As for `N#Cc1c(Nc2ccccc2)n[nH]c1/N=C/c1ccccc1` [Compound A9], the melting point lay within 257 to 260 °C. For the same molecule, the inhibition at 1 µM in series [1] lay in the range of 20 to 50%.

`N#Cc1c(Nc2ccccc2)n[nH]c1/N=C/c1ccc(O)c([N+](=O)[O-])c1` [Compound A10] came in with a melting point of 284 to 286 °C. The inhibition at 1 µM in series [1] was in the range of 5 to 20%.

Take `N#Cc1c(Nc2cccc(Cl)c2)n[nH]c1/N=C/c1ccccc1` [Compound A11]: the melting point was 260 to 264 °C. Moreover, in series [1], the inhibition at 1 µM fell in the range of 5 to 20%.

`N#Cc1c(Nc2cccc(Cl)c2)n[nH]c1/N=C/c1ccc(Cl)cc1` [Compound A12] returned a melting point of 283 to 286 °C. Further, the inhibition at 1 µM in series [1] was 20 to 50%.

Turning to `COc1ccc(/C=N/c2[nH]nc(Nc3cccc(Cl)c3)c2C#N)cc1` [Compound A13], the melting point lay within 263 to 266 °C. Besides, the inhibition at 1 µM in series [1] was 5 to 20%.

In turn, `N#Cc1c(Nc2cccc(Cl)c2)n[nH]c1/N=C/c1ccc(C(F)(F)F)cc1` [Compound A15, 3-((3-chlorophenyl)amino)-5-((4-(trifluoromethyl)benzylidene)amino)-1H-pyrazole-4-carbonitrile] displayed a melting point of 279 to 282 °C. In addition, in series [1], the inhibition at 1 µM lay within 5 to 20%.

Turning to `N#Cc1c(Nc2ccccc2)n[nH]c1/N=C/c1ccc([N+](=O)[O-])cc1` [Compound A19], the melting point lay within 290 to 294 °C. Further, the inhibition at 1 µM in series [1] is 5 to 20%.

On to `N#Cc1c(Nc2cccc(Cl)c2)n[nH]c1/N=C/c1ccc(O)cc1` [Compound A20], for which the melting point is 242 to 245 °C. The inhibition at 1 µM in series [1] is ≤ 5%.

Turning to `COc1cc(/C=N/c2[nH]nc(Nc3ccccc3)c2C#N)ccc1O` [Compound A21, 5-((4-hydroxy-3-methoxybenzylidene)amino)-3-(phenylamino)-1H-pyrazole-4-carbonitrile], the melting point was 208 to 214 °C. Also, the inhibition at 1 µM in series [1] fell in the range of 5 to 20%.

`N#Cc1c(Nc2ccccc2)n[nH]c1/N=C/c1ccc(O)cc1` [Compound A22]: the melting point lay within 241 to 245 °C. Also, the inhibition at 1 µM in series [1] was ≤ 5%.

As for `COc1ccccc1/C=N/c1[nH]nc(Nc2cccc(Cl)c2)c1C#N` [Compound A23], the melting point lay within 239 to 241 °C. In addition, in series [1], the inhibition at 1 µM lay within 20 to 50%.

`COc1ccccc1/C=N/c1[nH]nc(Nc2ccccc2)c1C#N` [Compound A26] came in with a melting point of 202 to 206 °C. The inhibition at 1 µM in series [1] was in the range of 5 to 20%.

As for `N#Cc1c(Nc2cccc(Cl)c2)n[nH]c1/N=C/c1cc(F)cc2c1OCOC2` [Compound A29, 3-((3-chlorophenyl)amino)-5-(((6-fluoro-4H-benzo[d][1,3]dioxin-8-yl)methylene)amino)-1H-pyrazole-4-carbonitrile], the melting point fell in the range of 248 to 251 °C. For the same molecule, the inhibition at 1 µM in series [1] lay in the range of 5 to 20%.

The molecule `N#Cc1c(Nc2ccccc2)n[nH]c1/N=C/c1cc(F)cc2c1OCOC2` [Compound A30] had a melting point of 247 to 251 °C. In addition, the inhibition at 1 µM in series [1] is 5 to 20%.

In turn, `N#Cc1c(Nc2ccc(Cl)cc2)n[nH]c1/N=C/c1ccc(O)cc1` [Compound A32] registered a melting point of 286 to 288 °C. The inhibition at 1 µM in series [1] is 5 to 20%.

With `COc1ccc(/C=N/c2[nH]nc(Nc3ccc(Cl)cc3)c2C#N)cc1` [Compound A33], the melting point is 290 to 291 °C. The inhibition at 1 µM in series [1] is ≤ 5%.

For `N#Cc1c(Nc2ccc(Cl)cc2)n[nH]c1/N=C/c1ccc(Cl)cc1` [Compound A35], the melting point lay within 296 to 300 °C. Moreover, the inhibition at 1 µM in series [1] was ≤ 5%.

Take `COc1ccccc1/C=N/c1[nH]nc(Nc2ccc(Cl)cc2)c1C#N` [Compound A38]: the melting point lay in the range of 262 to 265 °C. For the same molecule, the inhibition at 1 µM in series [1] is ≤ 5%.

Take `N#Cc1c(Nc2ccc(Cl)cc2)n[nH]c1/N=C/c1cccc2ccccc12` [Compound A40]: the melting point lay in the range of 289 to 292 °C. Moreover, the inhibition at 1 µM in series [1] was ≤ 5%.

On to `COc1ccc(Nc2n[nH]c(/N=C/c3ccc(O)c([N+](=O)[O-])c3)c2C#N)cc1` [Compound A42], for which the melting point lay within 274 to 275 °C. Moreover, in series [1], the inhibition at 1 µM is ≤ 5%.

The molecule `COc1ccc(/C=N/c2[nH]nc(Nc3ccc(OC)cc3)c2C#N)cc1` [Compound A43] displayed a melting point of 246 to 250 °C. Moreover, the inhibition at 1 µM in series [1] is ≤ 5%.

`COc1ccc(Nc2n[nH]c(/N=C/c3ccc([N+](=O)[O-])cc3)c2C#N)cc1` [Compound A46] registered a melting point of 242 to 248 °C. Moreover, the inhibition at 1 µM in series [1] is ≤ 5%.

In turn, `N#Cc1c(NC2CC2)n[nH]c1/N=C/c1ccc(O)cc1` [Compound A48, 3-(cyclopropylamino)-5-((4-hydroxybenzylidene)amino)-1H-pyrazole-4-carbonitrile] registered a melting point of 220 to 228 °C. Moreover, the inhibition at 1 µM in series [1] was ≤ 5%.

In turn, `CC(C)(C)c1ccc(Nc2n[nH]c(/N=C/c3ccc(Cl)cc3)c2C#N)cc1` [Compound A53] yielded a melting point of 288 to 290 °C. Besides, the inhibition at 1 µM in series [1] lay in the range of 5 to 20%.

For `COc1ccc(Nc2n[nH]c(/N=C/c3ccc(O)cc3)c2C#N)cc1` [Compound A54], the melting point lay in the range of 193 to 197 °C. The inhibition at 1 µM in series [1] was 5 to 20%.

As to `NC(=O)c1c(Nc2cccc(Cl)c2)n[nH]c1/N=C/c1cccc(OCCO)c1` [Compound B104, 3-((3-chlorophenyl)amino)-5-((3-(2-hydroxyethoxy)benzylidene)amino)-1H-pyrazole-4-carboxamide], the inhibition at 1 µM in series [1] fell in the range of 20 to 50%.

On to `NC(=O)c1c(Nc2cccc(Cl)c2)n[nH]c1/N=C/c1cccnc1Cl` [Compound B105], for which the “Activity (inhibition of the RC kinase activity)” value in series [1] is “C (no greater than 20% but at least 5% inhibition of the RC kinase activity at 1 μM)”.

On to `Cc1ccc(/C=N/c2[nH]nc(Nc3cccc(Cl)c3)c2C(N)=O)c(O)c1` [Compound B106], for which the inhibition at 1 µM in series [1] is ≤ 5%.

Regarding `NC(=O)c1c(Nc2cccc(Cl)c2)n[nH]c1/N=C/c1ccc(OCc2ccc(F)cc2)cc1` [Compound B107], the inhibition at 1 µM in series [1] was ≤ 5%.

Turning to `COc1cc(O)cc(OC)c1/C=N/c1[nH]nc(Nc2cccc(Cl)c2)c1C(N)=O` [Compound B108], the “Activity (inhibition of the RC kinase activity)” value in series [1] is on record as “B (no greater than 50% but at least 20% inhibition of the RC kinase activity at 1 μM)”.

Regarding `NC(=O)c1c(Nc2cccc(Cl)c2)n[nH]c1/N=C/c1ccc(OCCO)cc1` [Compound B109], the inhibition at 1 µM in series [1] is 5 to 20%.

Turning to `NC(=O)c1c(Nc2cccc(Cl)c2)n[nH]c1/N=C/c1cc[nH]c1` [Compound B111], in series [1], the inhibition at 1 µM is ≥ 50%.

Take `NC(=O)c1c(Nc2ccccc2Cl)n[nH]c1/N=C/c1ccccc1` [Compound B115]: the “Activity (inhibition of the RC kinase activity)” value in series [1] is “B (no greater than 50% but at least 20% inhibition of the RC kinase activity at 1 μM)”.

Consider `NC(=O)c1c(Nc2ccccc2Cl)n[nH]c1/N=C/c1cc(O)ccc1[N+](=O)[O-]` [Compound B116], for which, in series [1], the “Activity (inhibition of the RC kinase activity)” value is “C (no greater than 20% but at least 5% inhibition of the RC kinase activity at 1 μM)”.

`NC(=O)c1c(Nc2cccc(Cl)c2)n[nH]c1/N=C/c1ccc(Oc2ncccn2)cc1` [Compound B123]: the “Activity (inhibition of the RC kinase activity)” value in series [1] (1 µM) is “B (no greater than 50% but at least 20% inhibition of the RC kinase activity at 1 μM)”.
